Test: Chromatographic lipophilicity overall (HPTLC and HPLC systems), structure-retention comparison and PCA
Assay type: physicochemical
Settings: for lipophilicity by first principal component score (average value of lipophilicity, in words): PCA of experimental and computational data, PC1; for lipophilicity by heterocyclic substituent (chromatographic parameters, in words): Tables S1–S7, all chromatographic systems
Method: Chromatographic studies were carried out using both HPTLC and HPLC methods under the isocratic conditions. In all systems, there were stated linear relationships between the RM (HPTLC) or log kw (HPLC) values and the organic modifier content (ϕ) in the mobile phase. This is described by the Soczewinski–Wachtmeister equation [31] as follows:RM = RMw + bϕ(1) log k = log kw + bϕ(2) where ϕ expresses the volume fraction of the organic solvent in the mobile phase; RMw (log kw) corresponds to 0% of the organic solvent content in the mobile phase; b represents the slope of a regression line.
The retention behavior of the compounds was analyzed by HPTLC using the octyl C8 and octadecyl C18 stationary phases and MeOH, ACN, acetone, and dioxane as organic modifiers (Supplementary Materials Tables S1–S4). The chromatographic evaluation of using the HPLC methods was made in the systems, with C8/MeOH, C8/ACN, and C18/ACN analogous to HPTLC (Tables S5 and S7). The measurements using the IAM and Chol stationary phases and the buffered mobile phases (pH = 7.4) were additionally used (Supplementary Materials Tables S5–S7).
The lipophilicity parameters for the Et derivatives were usually higher than those for chlorine ones (1 and 2; 7 and 8). This was an expected effect, taking into account the hydrophobicity parameter π (Hansch–Fujita π constant) for these substituents. Deviations from this order were sometimes observed. […] (Supplementary Materials Tables S1–S7).
To investigate the similarity between the investigated compounds, the obtained experimental and computational data were analyzed using scaled principal component analysis.
The most important conclusion from the PCA analysis is that all coefficients, both computational and experimental ones, were highly redundant. In total, 85% of the information was common for them and could be collected together to form the first principal component. The score could be interpreted as an average value of lipophilicity.

| SMILES | lipophilicity by first principal component score (average value of lipophilicity, in words) | lipophilicity by heterocyclic substituent (chromatographic parameters, in words) |
| --- | --- | --- |
| CCc1cc(-c2nnc(-c3cc4cc(Br)ccc4n3C)s2)c(O)cc1O [Compound 5] | highest lipophilicity |  |
| Oc1ccc(-c2nnc(-c3ccc(N4CCOCC4)nc3)s2)c(O)c1 [Compound 13] |  | lowest lipophilicity |
| Oc1cc(O)c(-c2nnc(-c3ccco3)s2)cc1Cl [Compound 1] |  | low lipophilicity |
| Oc1ccc(-c2nnc(-c3ccn4c(Br)cnc4c3)s2)c(O)c1 [Compound 9] | lowest lipophilicity |  |
| Oc1ccc(-c2nnc(-c3ccc4nonc4c3)s2)c(O)c1 [Compound 6] |  | low lipophilicity |
